This data set is described as follows: activity coefficient (dimensionless); of the first substance listed, at infinite dilution; xn = mol fraction of the nth substance listed. To be noted: 101 kPa, Liquid, Chromatography, x1 = 0.

Each structure is given as a SMILES string. ± gives the expanded uncertainty stated by the source.

For `Cc1ccc(C)cc1` [1,4-dimethylbenzene] + CCCC[n+]1cccc(C)c1.O=S(=O)([O-])C(F)(F)F, the activity coefficient by setting is: (318.15 K) 2.46 ± 0.17; (328.15 K) 2.52 ± 0.17; (338.15 K) 2.57 ± 0.17; (348.15 K) 2.62 ± 0.18; (358.15 K) 2.68 ± 0.18.
Turning to `C1CCCCC1` [cyclohexane] + CCCC[n+]1cccc(C)c1.O=S(=O)([O-])C(F)(F)F, the activity coefficient is 13.2 ± 0.9 (308.15 K); 12.4 ± 0.8 (318.15 K); 11.7 ± 0.8 (328.15 K); 11.1 ± 0.8 (338.15 K); 10.6 ± 0.7 (348.15 K); 10.1 ± 0.7 (358.15 K).
`CCCCCCC` [heptane] + CCCC[n+]1cccc(C)c1.O=S(=O)([O-])C(F)(F)F: the activity coefficient turned out to be 35.1 ± 2.4 (308.15 K); 32.7 ± 2.2 (318.15 K); 30.8 ± 2.1 (328.15 K); 29 ± 2 (338.15 K); 27.5 ± 1.9 (348.15 K); 26.1 ± 1.8 (358.15 K).
With `C#CCCCC` [1-hexyne] + CCCC[n+]1cccc(C)c1.O=S(=O)([O-])C(F)(F)F, the activity coefficient reads like this: (308.15 K) 2.86 ± 0.19; (318.15 K) 2.94 ± 0.2; (328.15 K) 3.03 ± 0.21; (338.15 K) 3.11 ± 0.21; (348.15 K) 3.19 ± 0.22; (358.15 K) 3.27 ± 0.22.
For the compound `c1ccsc1` [thiophene] + CCCC[n+]1cccc(C)c1.O=S(=O)([O-])C(F)(F)F, the activity coefficient came out at 0.898 ± 0.057 (318.15 K); 0.919 ± 0.058 (328.15 K); 0.937 ± 0.059 (338.15 K); 0.955 ± 0.06 (348.15 K); 0.972 ± 0.061 (358.15 K).
For the compound `CCCCO` [butan-1-ol] + CCCC[n+]1cccc(C)c1.O=S(=O)([O-])C(F)(F)F, the activity coefficient by setting is: (318.15 K) 1.42 ± 0.09; (328.15 K) 1.34 ± 0.09; (338.15 K) 1.26 ± 0.08; (348.15 K) 1.2 ± 0.08; (358.15 K) 1.15 ± 0.07.
In the same order, the values of `Cc1cccc(C)c1` [1,3-dimethylbenzene] + CCCC[n+]1cccc(C)c1.O=S(=O)([O-])C(F)(F)F are 2.57 ± 0.17, 2.62 ± 0.18, 2.67 ± 0.18, 2.71 ± 0.18 and 2.76 ± 0.19.
Regarding `CCCCCC` [hexane] + CCCC[n+]1cccc(C)c1.O=S(=O)([O-])C(F)(F)F, the activity coefficient runs as follows: (308.15 K) 24.7 ± 1.7; (318.15 K) 23.2 ± 1.6; (328.15 K) 22.1 ± 1.5; (338.15 K) 20.9 ± 1.4; (348.15 K) 20 ± 1.4; (358.15 K) 19.1 ± 1.3.
`CCCCCCCC` [octane] + CCCC[n+]1cccc(C)c1.O=S(=O)([O-])C(F)(F)F: the activity coefficient was 49.6 ± 3.4 (308.15 K); 46.3 ± 3.2 (318.15 K); 43.4 ± 3 (328.15 K); 40.7 ± 2.8 (338.15 K); 38.5 ± 2.6 (348.15 K); 36.2 ± 2.5 (358.15 K).
With `O` [water] + CCCC[n+]1cccc(C)c1.O=S(=O)([O-])C(F)(F)F, the activity coefficient stood at 0.89 ± 0.057 (318.15 K); 0.857 ± 0.055 (328.15 K); 0.82 ± 0.053 (338.15 K); 0.789 ± 0.051 (348.15 K); 0.765 ± 0.05 (358.15 K).
As to `C#CCCCCC` [1-heptyne] + CCCC[n+]1cccc(C)c1.O=S(=O)([O-])C(F)(F)F, the activity coefficient by setting is: (308.15 K) 4.09 ± 0.28; (318.15 K) 4.18 ± 0.28; (328.15 K) 4.28 ± 0.29; (338.15 K) 4.37 ± 0.3; (348.15 K) 4.46 ± 0.3; (358.15 K) 4.53 ± 0.31.
Consider `CCOCC` [diethyl ether] + CCCC[n+]1cccc(C)c1.O=S(=O)([O-])C(F)(F)F, for which the activity coefficient (308.15 K) stood at 4.29 ± 0.29; the activity coefficient (318.15 K) was determined as 4.24 ± 0.29; the activity coefficient (328.15 K) was found to be 4.18 ± 0.28; the activity coefficient (338.15 K) is 4.14 ± 0.28; the activity coefficient (348.15 K) was 4.1 ± 0.28; the activity coefficient (358.15 K) is 4.07 ± 0.28.
Turning to `CCCOCCC` [dipropyl ether] + CCCC[n+]1cccc(C)c1.O=S(=O)([O-])C(F)(F)F, the activity coefficient is, setting by setting: (308.15 K) 10.4 ± 0.7; (318.15 K) 10.1 ± 0.7; (328.15 K) 9.86 ± 0.67; (338.15 K) 9.6 ± 0.65; (348.15 K) 9.35 ± 0.64; (358.15 K) 9.14 ± 0.62.
Consider `C#CCCCCCC` [1-octyne] + CCCC[n+]1cccc(C)c1.O=S(=O)([O-])C(F)(F)F, for which the activity coefficient is, setting by setting: (318.15 K) 5.88 ± 0.4; (328.15 K) 5.97 ± 0.41; (338.15 K) 6.05 ± 0.41; (348.15 K) 6.14 ± 0.42; (358.15 K) 6.23 ± 0.42.
On to `C=CCCCC` [hex-1-ene] + CCCC[n+]1cccc(C)c1.O=S(=O)([O-])C(F)(F)F, for which the activity coefficient reads like this: (308.15 K) 11.9 ± 0.8; (318.15 K) 11.5 ± 0.8; (328.15 K) 11.2 ± 0.8; (338.15 K) 10.9 ± 0.7; (348.15 K) 10.6 ± 0.7; (358.15 K) 10.3 ± 0.7.
Consider `COC(C)(C)C` [2-methoxy-2-methylpropane] + CCCC[n+]1cccc(C)c1.O=S(=O)([O-])C(F)(F)F, for which the activity coefficient came to 4.21 ± 0.29 (308.15 K); 4.22 ± 0.29 (318.15 K); 4.23 ± 0.29 (328.15 K); 4.23 ± 0.29 (338.15 K); 4.24 ± 0.29 (348.15 K); 4.24 ± 0.29 (358.15 K).
Regarding `CCCC(C)=O` [pentan-2-one] + CCCC[n+]1cccc(C)c1.O=S(=O)([O-])C(F)(F)F, the activity coefficient is, setting by setting: (318.15 K) 1.35 ± 0.09; (328.15 K) 1.36 ± 0.09; (338.15 K) 1.38 ± 0.09; (348.15 K) 1.39 ± 0.09; (358.15 K) 1.41 ± 0.09.
In the case of `CC(C)=O` [acetone] + CCCC[n+]1cccc(C)c1.O=S(=O)([O-])C(F)(F)F, the activity coefficient worked out at 0.743 ± 0.049 (308.15 K); 0.752 ± 0.049 (318.15 K); 0.762 ± 0.05 (328.15 K); 0.77 ± 0.05 (338.15 K); 0.776 ± 0.051 (348.15 K); 0.783 ± 0.051 (358.15 K).
Consider `c1ccccc1` [benzene] + CCCC[n+]1cccc(C)c1.O=S(=O)([O-])C(F)(F)F, for which the activity coefficient runs as follows: (308.15 K) 1.2 ± 0.08; (318.15 K) 1.23 ± 0.08; (328.15 K) 1.25 ± 0.08; (338.15 K) 1.27 ± 0.08; (348.15 K) 1.29 ± 0.08; (358.15 K) 1.31 ± 0.09.
On to `Cc1ccccc1` [toluene] + CCCC[n+]1cccc(C)c1.O=S(=O)([O-])C(F)(F)F, for which the activity coefficient by setting is: (318.15 K) 1.76 ± 0.12; (328.15 K) 1.79 ± 0.12; (338.15 K) 1.82 ± 0.12; (348.15 K) 1.85 ± 0.12; (358.15 K) 1.88 ± 0.13.
`C1CCCCCC1` [cycloheptane] + CCCC[n+]1cccc(C)c1.O=S(=O)([O-])C(F)(F)F: the activity coefficient (308.15 K) came out at 16.4 ± 1.1; the activity coefficient (318.15 K) was found to be 15.4 ± 1.1; the activity coefficient (328.15 K) amounted to 14.6 ± 1; the activity coefficient (338.15 K) amounted to 13.8 ± 0.9; the activity coefficient (348.15 K) worked out at 13.2 ± 0.9; the activity coefficient (358.15 K) is 12.5 ± 0.9.
As to `CCc1ccccc1` [ethylbenzene] + CCCC[n+]1cccc(C)c1.O=S(=O)([O-])C(F)(F)F, the activity coefficient (318.15 K) is 2.76 ± 0.19; the activity coefficient (328.15 K) is 2.78 ± 0.19; the activity coefficient (338.15 K) was 2.8 ± 0.19; the activity coefficient (348.15 K) turned out to be 2.81 ± 0.19; the activity coefficient (358.15 K) was determined as 2.83 ± 0.19.
In the same order, the values of `CCC(=O)CC` [pentan-3-one] + CCCC[n+]1cccc(C)c1.O=S(=O)([O-])C(F)(F)F are 1.39 ± 0.09, 1.42 ± 0.09, 1.44 ± 0.09, 1.46 ± 0.1 and 1.48 ± 0.1.
`C1CCCC1` [cyclopentane] + CCCC[n+]1cccc(C)c1.O=S(=O)([O-])C(F)(F)F: the activity coefficient is, setting by setting: (308.15 K) 9.4 ± 0.64; (318.15 K) 8.89 ± 0.61; (328.15 K) 8.51 ± 0.58; (338.15 K) 8.15 ± 0.56; (348.15 K) 7.8 ± 0.53; (358.15 K) 7.54 ± 0.51.
Consider `C1CCOC1` [tetrahydrofuran] + CCCC[n+]1cccc(C)c1.O=S(=O)([O-])C(F)(F)F, for which the activity coefficient was found to be 1.19 ± 0.08 (308.15 K); 1.2 ± 0.08 (318.15 K); 1.21 ± 0.08 (328.15 K); 1.23 ± 0.08 (338.15 K); 1.24 ± 0.08 (348.15 K); 1.25 ± 0.08 (358.15 K).
As for `CO` [methanol] + CCCC[n+]1cccc(C)c1.O=S(=O)([O-])C(F)(F)F, the activity coefficient (318.15 K) stood at 0.642 ± 0.044; the activity coefficient (328.15 K) amounted to 0.617 ± 0.043; the activity coefficient (338.15 K) was 0.592 ± 0.042; the activity coefficient (348.15 K) amounted to 0.57 ± 0.041; the activity coefficient (358.15 K) stood at 0.551 ± 0.04.
Consider `C=CCCCCC` [1-heptene] + CCCC[n+]1cccc(C)c1.O=S(=O)([O-])C(F)(F)F, for which the activity coefficient (308.15 K) came to 17.1 ± 1.2; the activity coefficient (318.15 K) was found to be 16.4 ± 1.1; the activity coefficient (328.15 K) amounted to 15.9 ± 1.1; the activity coefficient (338.15 K) was 15.4 ± 1.1; the activity coefficient (348.15 K) amounted to 15 ± 1; the activity coefficient (358.15 K) came to 14.5 ± 1.
Regarding `CCCCC` [pentane] + CCCC[n+]1cccc(C)c1.O=S(=O)([O-])C(F)(F)F, the activity coefficient (308.15 K) came to 18.5 ± 1.3; the activity coefficient (318.15 K) is 17.3 ± 1.2; the activity coefficient (328.15 K) came out at 16.4 ± 1.1; the activity coefficient (338.15 K) was 15.5 ± 1.1; the activity coefficient (348.15 K) stood at 14.8 ± 1; the activity coefficient (358.15 K) came to 14.1 ± 1.

Values taken from the NIST ThermoML archive (doi:10.1021/je1000582).
